Laboratory results from patent US7910612B2, “4-oxy-N-[1,3,4]-thiadiazol-2-yl-benzene sulfonamides, pharmaceutical compositions and methods for their therapeutic use” (Sanofi-Aventis, priority 2005, dated 2011).

These molecules were tested against T1, human PPARalpha (Homo sapiens, UniProt Q07869) (assay: cellular PPARalpha assay (stably transfected HEK luciferase reporter cell line)).
T1 construct: amino acids S167-Y468; expressed in transfected cells; host or cells: HEK (human embryo kidney) cells, stably transfected, pcDNA3 vector
T1 sequence (Q07869 167-468): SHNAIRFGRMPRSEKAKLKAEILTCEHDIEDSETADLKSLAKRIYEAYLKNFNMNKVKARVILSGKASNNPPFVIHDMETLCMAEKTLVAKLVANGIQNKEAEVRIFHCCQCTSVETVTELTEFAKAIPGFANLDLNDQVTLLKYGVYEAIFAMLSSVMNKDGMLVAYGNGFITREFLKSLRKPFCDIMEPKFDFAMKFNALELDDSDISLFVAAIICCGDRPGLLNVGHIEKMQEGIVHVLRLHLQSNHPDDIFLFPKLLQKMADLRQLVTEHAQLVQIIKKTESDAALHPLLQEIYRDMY
Format: cell-based
Experimental: The activity of the compounds was tested by a determination of EC50 values of PPAR agonists in the cellular PPARalpha assay. The potency of substances which bind to human PPARalpha and activate it in an agonistic manner is analyzed using a stably transfected HEK cell line (HEK=human embryo kidney) which is referred to here as PPARalpha reporter cell line. It contains two genetic elements, a luciferase reporter element (pdeltaM-GAL4-Luc-Zeo) and a PPARalpha fusion protein (GR-GAL4-humanPPARalpha-LBD) which mediates expression of the luciferase reporter element depending on a PPARalpha ligand. The stably and constitutively expressed fusion protein GR-GAL4-humanPPARalpha-LBD binds in the cell nucleus of the PPARalpha reporter cell line via the GAL4 protein portion to the GAL4 DNA binding motifs 5′-upstream of the luciferase reporter element which is stably integrated in the genome of the cell line. There is only weak expression of the luciferase reporter gene in the absence of a PPARalpha ligand if fatty acid-depleted fetal calf serum (cs-FCS) is used in the assay. PPARalpha ligands bind and activate the PPARalpha fusion protein and thereby stimulate the expression of the luciferase reporter gene. The luciferase which is formed can be detected by means of chemiluminescence via an appropriate substrate.
The PPARalpha reporter cell line was prepared in two stages. Firstly, the luciferase reporter element was constructed and stably transfected into HEK cells. For this purpose, five binding sites of the yeast transcription factor GAL4 (Accession # AF264724) were cloned in 5′-upstream of a 68 bp-long minimal MMTV promoter (Accession #V01175). The minimal MMTV promoter section contains a […] and a TATA element in order to enable efficient transcription by RNA polymerase II. The cloning and sequencing of the GAL4-MMTV construct took place in analogy to the description of Sambrook J. et. al. (Molecular cloning, Cold Spring Harbor Laboratory Press, 1989). Then the complete Photinus pyralis gene (Accession #M15077) was cloned in 3′-downstream of the GAL4-MMTV element. After sequencing, the luciferase reporter element consisting of five GAL4 binding sites, MMTV promoter and luciferase gene was recloned into a plasmid which confers zeocin resistance in order to obtain the plasmid pdeltaM-GAL4-Luc-Zeo. This vector was transfected into HEK cells in accordance with the statements in Ausubel, F. M. et al. (Current protocols in molecular biology, Vol. 1-3, John Wiley & Sons, Inc., 1995).
In a second step, the PPARalpha fusion protein (GR-GAL4-humanPPARalpha-LBD was introduced into the stable cell clone described. For this purpose, initially the cDNA coding for the N-terminal 76 amino acids of the glucocorticoid receptor (Accession #P04150) was linked to the cDNA section coding for amino acids 1-147 of the yeast transcription factor GAL4 (Accession #P04386). The cDNA of the ligand-binding domain of the human PPARalpha receptor (amino acids S167-Y468; Accession #S74349) was cloned in at the 3′-end of this GR-GAL4 construct. The fusion construct prepared in this way (GR-GAL4-humanPPARalpha-LBD) was recloned into the plasmid pcDNA3 (Invitrogen) in order to enable constitutive expression therein by the cytomegalovirus promoter. This plasmid was linearized with a restriction endonuclease and stably transfected into the previously described cell clone containing the luciferase reporter element. The finished PPARalpha reporter cell line which contains a luciferase reporter element and constitutively expresses the PPARalpha fusion protein (GR-GAL4-human PPARalpha-LBD) was isolated by selection with zeocin (0.5 mg/ml) and G418 (0.5 mg/ml).
Assay procedure.—The activity of PPARalpha agonists is determined in a 3-day assay which is described below: […]

| EC50 [nM] | SMILES |
| --- | --- |
| 2900 | Cc1nc(-c2ccc(C(F)(F)F)cc2)sc1COc1ccc(S(=O)(=O)Nc2nnc(C(C)C)s2)cc1 [Example 1, N-(5-Isopropyl-[1,3,4]thiadiazol-2-yl)-4-[4-methyl-2-(4-trifluoromethyl-phenyl)-thiazol-5-ylmethoxy]-benzenesulfonamide] |
| 4570 | COc1ccc2c(COc3ccc(S(=O)(=O)Nc4nnc(C(C)C)s4)cc3)coc2c1 [Example 3, N-(5-Isopropyl-[1,3,4]thiadiazol-2-yl)-4-(6-methoxy-benzofuran-3-ylmethoxy)-benzenesulfonamide] |
| 540 | CC(C)c1nnc(NS(=O)(=O)c2ccc(OCc3ccc(Oc4ccc(C(F)(F)F)cc4)cc3)cc2)s1 [Example 4, N-(5-Isopropyl-[1,3,4]thiadiazol-2-yl)-4-[4-(4-trifluoromethyl-phenoxy)-benzyloxy]-benzenesulfonamide] |
| 1420 | COc1ccc(-c2nc(COc3ccc(S(=O)(=O)Nc4nnc(C(C)C)s4)cc3)no2)cc1 [Example 9, N-(5-Isopropyl-[1,3,4]thiadiazol-2-yl)-4-[5-(4-methoxy-phenyl)-[1,2,4]oxadiazol-3-ylmethoxy]-benzenesulfonamide] |
| 1200 | COc1ccc(-c2nc(COc3ccc(S(=O)(=O)Nc4nnc(C(C)C)s4)cc3)co2)cc1 [Example 13, N-(5-Isopropyl-[1,3,4]thiadiazol-2-yl)-4-[2-(4-methoxy-phenyl)-oxazol-4-ylmethoxy]-benzenesulfonamide] |
| 190 | CCc1oc(-c2cccc(C(F)(F)F)c2)nc1COc1ccc(S(=O)(=O)Nc2nnc(C(C)C)s2)cc1 [Example 14, 4-[5-Ethyl-2-(3-trifluoromethyl-phenyl)-oxazol-4-ylmethoxy]-N-(5-isopropyl-[1,3,4]thiadiazol-2-yl)-benzenesulfonamide] |
